Source: US20060110385A1, “Means and methods for diagnosing and treating affective disorders” (Affectis Pharmaceuticals AG, priority 2003, published 2006)

Key:
[1] = target: T1, P2X7R (Homo sapiens, UniProt Q99572); details: dose response curve, Y-axis ion current; cited from earlier work
T1 sequence (Q99572 1-595): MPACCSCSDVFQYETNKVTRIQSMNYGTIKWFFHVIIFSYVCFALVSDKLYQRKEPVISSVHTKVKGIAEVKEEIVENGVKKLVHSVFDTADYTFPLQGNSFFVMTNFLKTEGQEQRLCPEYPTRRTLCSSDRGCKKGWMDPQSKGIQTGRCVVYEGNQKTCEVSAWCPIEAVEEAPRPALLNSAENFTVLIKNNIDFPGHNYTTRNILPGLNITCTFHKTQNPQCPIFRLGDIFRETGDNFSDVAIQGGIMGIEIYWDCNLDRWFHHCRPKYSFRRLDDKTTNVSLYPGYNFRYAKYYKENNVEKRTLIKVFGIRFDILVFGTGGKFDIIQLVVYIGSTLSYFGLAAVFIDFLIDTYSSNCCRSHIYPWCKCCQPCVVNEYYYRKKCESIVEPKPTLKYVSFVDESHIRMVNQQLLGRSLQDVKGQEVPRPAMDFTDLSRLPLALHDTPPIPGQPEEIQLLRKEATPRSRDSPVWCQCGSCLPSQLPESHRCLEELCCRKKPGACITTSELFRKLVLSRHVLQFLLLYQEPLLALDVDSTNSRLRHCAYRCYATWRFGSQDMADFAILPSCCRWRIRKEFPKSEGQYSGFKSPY

[2] = target: T2, P2X7R (Mus musculus, UniProt Q9Z1M0); test: Entry of ethidium bromide into HT-22 cells; format: cell-based; details: HT-22 cells, 60 minutes, 10^−4M ethidium bromide; 1 μM to 1 mM tested
T2 construct: endogenous in cells; host or cells: HT-22 (immortalised mouse hippocampal cell line)
T2 sequence (Q9Z1M0 1-595): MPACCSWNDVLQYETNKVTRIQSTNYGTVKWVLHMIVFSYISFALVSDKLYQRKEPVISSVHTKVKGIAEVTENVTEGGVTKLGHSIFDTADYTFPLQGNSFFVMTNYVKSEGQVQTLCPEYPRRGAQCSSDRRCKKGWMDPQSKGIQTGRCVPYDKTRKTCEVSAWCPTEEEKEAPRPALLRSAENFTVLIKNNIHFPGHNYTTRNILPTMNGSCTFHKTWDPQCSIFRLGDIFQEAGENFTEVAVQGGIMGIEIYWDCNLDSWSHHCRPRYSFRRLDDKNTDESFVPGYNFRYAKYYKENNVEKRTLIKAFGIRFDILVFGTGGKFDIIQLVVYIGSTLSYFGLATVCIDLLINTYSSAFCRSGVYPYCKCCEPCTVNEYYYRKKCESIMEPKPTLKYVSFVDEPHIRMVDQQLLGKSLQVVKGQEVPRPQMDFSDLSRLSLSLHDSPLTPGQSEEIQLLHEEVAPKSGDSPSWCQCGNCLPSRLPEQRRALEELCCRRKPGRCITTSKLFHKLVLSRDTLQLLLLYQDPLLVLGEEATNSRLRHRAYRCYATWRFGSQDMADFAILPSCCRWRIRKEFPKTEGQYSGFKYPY
Excerpt: Yet another method of measuring P2X7R activity involves the entry of ethidium bromide into P2X7R expressing cells. Activation of P2X7R by an agonist allows the entry of ethidium bromide which binds nuclear DNA and emits a fluorescence signal. Alternatively, the propidium dye YOPRO-1 can be substituted for ethidium bromide. An increase in fluorescence can be used as a measure of P2X7 receptor activation. Therefore, the assay can be used to test and quantify the effect of an agent or compound with agonist properties on P2X7R. In the present example, 10^3 HT-22 cells were seeded per well in a 96-well flat bottom microtitre plates and incubated at 37° C./5% CO2 in DMEM medium containing 10% FCS until the cells attached to the culture surface. […] The number of fluorescent cells which have integrated the ethidium bromide to the DNA can then be counted using a fluorescent microscope (Zeiss, Germany). […] Alternatively, ethidium bromide fluorescence can be measured using a Perkin-Elmer fluorescent plate reader (excitation 520 nm, emission 595 nm, slit widths: Ex 15 nm, Em 20 nm). From the readings obtained, a pIC50 figure can be calculated for each candidate agent or compound. […] The specificity of an agonist for P2X7R can be evaluated by pre-incubation of the cells for 60 minutes with 100 μM o-ATP before adding the agonist and ethidium bromide dye.

[3] = target: T1, P2X7R; test: Calcium entry (Fluo-4 AM) in HT-22 cells overexpressing human P2X7R; format: cell-based; design: expressed in transfected cells; details: 20 μM BzATP or 50 μM tenidap
Excerpt: Yet another method for identifying P2X7R agonists was devised by generating a immortalised mouse cell line that overexpresses the human P2X7R gene under the control of the human cytomegalovirus (CMV) early promoter/enhancer region. The human P2X7R cDNA was inserted into the pcDNA3.1 vector (Invitrogen) and transfected into the mouse hippocampal cell line HT-22 using Lipofectamine (Invitrogen) according to the manufacturer's specifications. One day after transfection, culture medium containing 500 μg/ml G418 was added to the cells. Resistant clones were separately isolated and cultured 14 days after applying the selection medium.
The agonistic activity of a compound was evaluated by measuring calcium entry in the cells that overexpress the human P2X7R. Cells were cultured in 96 well plates and incubated at 37° C. with 5% CO2 DMEM with 10% foetal calf serum (Gibco) until they reached confluence. Cells were then loaded for one hour with 10 μM of Fluo-4 AM (Molecular Probes). Fluo-4 AM is a fluorescent dye that binds to intracellular calcium. […] Agonist activity was detected by measuring an increase in calcium influx which results in increased binding to Fluo-4 AM and increased fluorescence. Changes in fluorescence signal are measured using a Fluostar Optima plate reader (BMG biotech). […] Thus, both compound stimulated the activity of P2X7R which results in an influx of ions into the cells.

2′-3′-O-(4-Benzoylbenzoyl)adenosine 5′-triphosphate [BzATP]
EC50 [1]: 8 µM | concentration that increased the number of fluorescent nuclei [2]: above 100 μM | fluorescence intensity (calcium influx, Fluo-4 AM) [3]: rapid increase in fluorescence intensity
